Experimental data: patent US20030158160A1, “Pharmaceutical combination of an anti-androgen and tamoxifen for providing an anti-androgenic effect and aromatase inhibition” (priority 2000, published 2003)

What was measured:
healthy male volunteers = assay: Human clinical trial: free testosterone levels after CASODEX together with NOLVADEX or CASODEX alone; assay type: in vivo; settings: for Free testosterone concentration, gmean: n=7
Experimental: The following clinical trial was performed to determine the effect of the administration of CASODEX™ together with NOLVADEX™ on free testosterone levels in healthy male volunteers over a 6 week period.
Key Inclusion Criteria: Male, aged 65 years or above showing no clinically significant abnormalities in routine haematological and biochemical tests and having endocrinology and prostate specific antigen (PSA) results within normal limits.
Key Exclusion Criteria: Previous inclusion in a clinical trial using CASODEX™; concurrent treatment with any drugs with the exception of paracetomol; history or presence of any testicular abnormality; history or presence of gastrointestinal, hepatic or renal disease, or other condition known to interfere with the absorption, distribution, metabolism or excretion of drugs; a clinically significant illness within 2 weeks of trial commencement; definite or suspected personal or family history of significant adverse drug reactions or any hypersensitivity to CASODEX™ or NOLVADEX™; treatment within the previous 3 months with any drugs known to have a well-defined potential for hepatotoxicity or hepatic interaction.
Dosage: The CASODEX™ was administered daily at a dose of 150 mg and the NOLVADEX™ was administered daily at a dose of 20 mg. All treatments were in tablet form and taken once daily. Daily treatment with CASODEX™ plus NOLVADEX™ was for 6 weeks, this period being selected as the minimum time to attain steady-state plasma concentrations for the drugs. Another set of volunteers were administered CASODEX™ alone at a daily dose of 150 mg for 4 weeks. All treatments were in tablet form and taken once daily.
Key Assessment: Free testosterone concentrations were measured during the course of the trial.
Day 1 samples were drawn before dosing, and therefore act as a baseline measurement.

humans = settings: single agent therapy; cited from earlier work
men = settings: cited from earlier work

CC(O)(CS(=O)(=O)c1ccc(F)cc1)C(=O)Nc1ccc(C#N)c(C(F)(F)F)c1 (stereo not drawn) [CASODEX™, bicalutamide]
Free testosterone concentration, gmean (healthy male volunteers; Day 1, sample drawn before dosing (baseline)): 0.048 nmol/L | Free testosterone, ratio to Day 1 (healthy male volunteers; Day 29, CASODEX alone 150 mg daily): 1.58 | Free testosterone concentration, gmean (healthy male volunteers; Day 29, CASODEX alone 150 mg daily for 4 weeks): 0.076 nmol/L | Increase in mean free testosterone concentration by the end of the treatment period (healthy male volunteers; end of treatment period (4 weeks CASODEX alone; 6 weeks combination)): 58%

CC1(C)NC(=O)N(c2ccc([N+](=O)[O-])c(C(F)(F)F)c2)C1=O [nilutamide, 5,5-dimethyl-3-[4-nitro-3-(trifluoromethyl)phenyl]-2,4-imidazolidinedione]
Change of basal level of circulating testosterone (humans): causes an increase

CC/C(=C(\c1ccccc1)c1ccc(OCCN(C)C)cc1)c1ccccc1 [tamoxifen, (Z)-2-[p-(1,2-diphenylbut-1-enyl)phenoxy]ethyldimethylamine]
Effect on mean serum testosterone, oestradiol, LH levels, LH pulse frequency and LH pulse amplitude (men; 13 normal men, 6 week administration (Spijkstra et al)): An increase | Effect on basal serum levels of LH, oestradiol and testosterone (men; administration to men (Lewis-Jones et al)): elevates | Effect on testosterone and LH (men; intake in adult men (Comhaire et al)): increase testosterone and LH | Effect on basal LH, FSH and testosterone levels (men; three months' treatment, normogonadotrophic oligozoospermic men (van Bergeijk et al)): stimulated
